According to paper PMC4389368, “Sarmentine, a natural herbicide from Piper species with multiple herbicide mechanisms of action” (Frontiers in Plant Science, 2015):

How the values were obtained:
[1] = system: T1, photosystem II QB protein (D1); assay: oxygen evolution in isolated thylakoid membranes; assay type: biochemical, Amaranthus retroflexus
T1 construct: gene psbA; isolated thylakoid membranes, wild-type; with photosystem II complex

[2] = molecular target: T2, enoyl-ACP reductase (ENR) (Arabidopsis thaliana, UniProt Q9SLA8); assay: NADH oxidation (A340) with purified recombinant enzyme; assay type: biochemical
T2 construct: gene MOD1
T2 sequence (Q9SLA8 75-390): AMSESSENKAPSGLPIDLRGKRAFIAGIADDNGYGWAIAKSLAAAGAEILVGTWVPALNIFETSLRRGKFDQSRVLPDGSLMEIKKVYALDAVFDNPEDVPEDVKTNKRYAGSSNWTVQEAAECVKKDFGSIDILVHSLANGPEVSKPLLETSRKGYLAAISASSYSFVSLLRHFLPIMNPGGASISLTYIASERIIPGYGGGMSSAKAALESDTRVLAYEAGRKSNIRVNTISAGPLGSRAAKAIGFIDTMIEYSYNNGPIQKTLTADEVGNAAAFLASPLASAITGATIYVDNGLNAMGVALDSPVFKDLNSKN

[3] = molecular target: T3, photosystem II QB protein (D1) (Spinacia oleracea, UniProt P69560); assay: […]-atrazine displacement on spinach thylakoid membranes; assay type: binding
T3 construct: gene psbA; isolated thylakoid membranes; with photosystem II complex

IC50 [2] [µM]	Ki [3] [nM]	SMILES	IC50 [1] [nM]
		CCNc1nc(Cl)nc(NC(C)C)n1 [atrazine]	600
18.3	1500	CCCCC/C=C/C=C/C(=O)N1CCCC1 [Sarmentine, 1-(1-pyrrolidinyl)-(2E,4E)-2,4-decadien-1-one]	1720
